Experimental data reported in ChEMBL document CHEMBL1147319, “Spectroscopic and biological investigation of nimbolide and 28-deoxonimbolide from Azadirachta indica” (1989).
≈ marks a conversion by molar mass, not a printed value.

Legend:
Format in all cases: functional
Lu1 = assay: Cytotoxicity against human Lu1 cells; conditions: read-out: ED50 (the source's name)
P388 = assay: Cytotoxicity against mouse P388 cells after 48 hrs; conditions: P388, 48 h, read-out: ED50 (the source's name)
[1] = Cytotoxicity against human BC1 cells after 72 hrs; conditions: BC1, 72 h, read-out: ED50 (the source's name)
HT-1080 = assay: Cytotoxicity against human HT1080 cells after 48 hrs; conditions: HT-1080, 48 h, read-out: ED50 (the source's name)
KB = assay: Cytotoxicity against human KB cells after 72 hrs; conditions: read-out: ED50 (the source's name)
SK-MEL-2 = assay: Cytotoxicity against human SK-MEL-2 cells after 72 hrs; conditions: SK-MEL-2, 72 h, read-out: ED50 (the source's name)
Col2 = assay: Cytotoxicity against human Col2 cells after 72 hrs; conditions: Col2, 72 h, read-out: ED50 (the source's name)

Structure (SMILES)	EC50 (Lu1) [µg/mL]	EC50 (P388) [µg/mL]	EC50 [1] [µg/mL]	EC50 (HT-1080) [µg/mL]	EC50 (KB) [µg/mL]	EC50 (SK-MEL-2) [µg/mL]	EC50 (Col2) [µg/mL]
COC(=O)C[C@H]1[C@]2(C)C3=C(C)[C@H](c4ccoc4)C[C@H]3O[C@@H]2[C@@H]2OC[C@]3(C)C=CC(=O)[C@@]1(C)[C@@H]23	0.84 (≈ 1.86 µM)	0.66 (≈ 1.46 µM)	1.34 (≈ 2.96 µM)	1.04 (≈ 2.3 µM)	1.3 (≈ 2.87 µM)	2.05 (≈ 4.53 µM)	1.81 (≈ 4 µM)
COC(=O)C[C@H]1[C@]2(C)C3=C(C)[C@H](c4ccoc4)C[C@H]3O[C@@H]2[C@@H]2OC(=O)[C@]3(C)C=CC(=O)[C@@]1(C)[C@@H]23 [NIMBOLIDE]	0.42 (≈ 0.9 µM)	0.065 (≈ 0.139 µM)	0.39 (≈ 0.836 µM)	0.31 (≈ 0.664 µM)	0.25 (≈ 0.536 µM)	0.53 (≈ 1.14 µM)	0.41 (≈ 0.879 µM)
